Where a SMILES comes first, the peptide text is derived from it. Bridges are numbered along the chain shown (N, C = ends).
Legend:
[1] = tested on: LE II cells; assay: Inhibition of TGFα-induced cell proliferation ([3H]-methylthymidine incorporation); assay type: cell-based, Murine; settings: induced by 2 × 10^-9 M TGFα; for % of thymidine incorporation: control 420 ± 30
Method: (§1) LE II cells were grown to confluence in 48 well cluster dishes and starved for two days in DMEM containing 0.5% fetal calf serum.
(§2) The percent enhancement of thymidine incorporation was used as the measure of cell proliferation. The lower the percentage of thymidine incorporation, the lower the rate of cell proliferation. Inhibition of EGF-induced cell proliferation by the foregoing compounds is reflected in Table II. Table III gives the inhibition of TGFα-induced cell proliferation.

[2] = molecular target: T1, EGF receptors (Mus musculus, UniProt Q01279); assay: Competitive antagonism of 125I-EGF binding to LE II cells (Scatchard plots); design: species or system Murine; settings: in the presence of 20 μg/ml peptide, 4° C.; for apparent association constant for EGF: lower = more effective competitor
T1 construct: endogenous in cells; host or cells: LE II murine lung endothelial cells
Method: Murine lung endothelial cells identified as LE II were grown to confluence in 24 well cluster dishes in Dulbecco's minimal essential medium (DMEM) containing 10% fetal calf serum. Cells were washed twice with DMEM containing 1% bovine serum albumin and buffered at pH 7.4 with 50 mM Hepes buffer (DMEM-BSA). […] At the end of the incubation period, cells were washed three times with DMEM-BSA, lysed in 0.1N sodium hydroxide and cell-associated radioactivity was determined in a gamma counter.

[3] = tested on: LE II cells; assay: Inhibition of EGF-induced cell proliferation ([3H]-methylthymidine incorporation); assay type: cell-based, Murine; settings: induced by 2 × 10^-9 M EGF; for % Enhancement of thymidine incorporation: control 380 ± 20
Method: as §1, §2

[4] = tested on: rabbit anti-TGF α-KLH IgG; assay: Competitive radioimmunoassay: iodinated rabbit anti-TGF α-KLH IgG preincubated with inhibitor, then bound to BSA-peptide complex coated wells; assay type: binding; settings: no inhibitor 8400 ± 600 cpm
Method: A. Rabbit IgG antibodies to the compound [drawing 24] (anti-TGF α-KLH), as prepared in accordance with Example 7, were iodinated by the chloramine-T method. To 1 mg anti-TGF α-KLH antibody in 0.2M phosphate buffer (pH 7.6) was added 20 μl of a 2 mg/ml solution of chloramine-T and 1mCiNa^125 I for 3 minutes at room temperature. 1 mg KI was added and excess free iodine removed by chromatography on a Sephadex G-50 column. The specific activity of the antibodies varied between 200,000 and 400,000 counts per minute (cpm)/μg protein. Flexible polyvinylchloride plates were coated with a 1 mg/ml solution of BSA-peptide complex (prepared in accordance with Example 6A) in phosphate buffered saline (PBS) for 16 hours at 4° C. Plates were countered with a solution containing BSA and 1% Bovine gamma globulin.
These solutions were then added to the coated wells for an additional 2 hours at 37° C. After several washes with PBS containing 0.1% BSA, individual wells were cut apart and counted in a gamma counter.

Row | apparent association constant for EGF [2] [M⁻¹] | Molecule | % Enhancement of thymidine incorporation, second figure relative to control = 100 (ratio of TGF α fragment/EGF counts per minute) ([3]; peptide 10^-5 M) [%] | % Enhancement of thymidine incorporation ([3]; peptide 10^-5 M) [%] | % Enhancement of thymidine incorporation, second figure relative to control = 100 (ratio of TGF α fragment/EGF counts per minute) ([3]; peptide 10^-6 M) [%] | % Enhancement of thymidine incorporation ([3]; peptide 10^-6 M) [%] | % Enhancement of thymidine incorporation, second figure relative to control = 100 (ratio of TGF α fragment/EGF counts per minute) ([3]; peptide 10^-7 M) [%] | cpm of iodinated anti-TGF α-KLH IgG bound to coated wells ([4]; inhibitor 10 ng/ml) [cpm] | cpm of iodinated anti-TGF α-KLH IgG bound to coated wells ([4]; inhibitor 100 ng/ml) [cpm] | cpm of iodinated anti-TGF α-KLH IgG bound to coated wells ([4]; inhibitor 1000 ng/ml) [cpm] | other results
1 | 1.5e+10 | CC(C)[C@@H]1NC(=O)CNC(=O)[C@H](C(C)C)NC(=O)[C@H](Cc2ccc(O)cc2)NC(=O)CNC(=O)[C@H](CO)NC(=O)[C@H](Cc2c[nH]cn2)NC(=O)[C@@H](N)CSSC[C@@H](C(=O)O)NC(=O)[C@H](CCCNC(=N)N)NC1=O [Peptide 1] (H-CHSGYVGVRC-OH; disulfide 1-10) | 70 | 265 ± 15 | 95 | 360 ± 20 | 103 |  |  |  | % of thymidine incorporation, second figure relative to control = 100 ([1]; peptide 10^-5 M): 79%; % of thymidine incorporation ([1]; peptide 10^-5 M): 330 ± 10%; % of thymidine incorporation, second figure relative to control = 100 ([1]; peptide 10^-6 M): 95%; % of thymidine incorporation ([1]; peptide 10^-6 M): 400 ± 20%; % of thymidine incorporation, second figure relative to control = 100 ([1]; peptide 10^-7 M): 95%; % of thymidine incorporation ([1]; peptide 10^-7 M): 400 ± 20%
2 | 1.5e+10 | CC(C)[C@@H]1NC(=O)[C@H](Cc2ccc(O)cc2)NC(=O)CNC(=O)[C@H](CO)NC(=O)[C@H](Cc2c[nH]cn2)NC(=O)[C@@H](N)CSSC[C@@H](C(=O)O)NC(=O)[C@H](CCCNC(=N)N)NC(=O)[C@H](C)NC(=O)CNC1=O [Peptide 2] (H-CHSGYVGARC-OH; disulfide 1-10) | 64 | 245 ± 25 | 97 | 370 ± 15 | 100 |  |  |  | % Enhancement of thymidine incorporation ([3]; peptide 10^-7 M): 380 ± 20%
3 |  | EGF: epidermal growth factor |  |  |  |  |  | 8800 ± 400 | 8200 ± 500 | 7600 ± 800 | cpm of iodinated anti-TGF α-KLH IgG bound to coated wells ([4]; inhibitor 10,000 ng/ml): 7800 ± 600 cpm
4 |  | H-Cys-His-Ser-Gly-Tyr-Val-Gly-Val-Arg-Cys-OH (H-CHSGYVGVRC-OH; disulfide 1-10 (inferred)) [TGFα fragment peptide] |  |  |  |  |  |  |  |  | extrapolated saturation binding of 125I-EGF ([2]; one hour, 0.51±0.03 nM in its absence): 0.5 ± 0.02 nM
5 |  | TGFα: native human transforming growth factor alpha, used as inhibitor in the radioimmunoassay |  |  |  |  |  | 7600 ± 400 | 5100 ± 700 | 3800 ± 400 | cpm of iodinated anti-TGF α-KLH IgG bound to coated wells ([4]; inhibitor 1 ng/ml): 8600 ± 800 cpm

From patent US4686283A, “Analogs of transforming and epidermal growth factor fragments for therapy and diagnosis” (Syntex (U.S.A.) Inc., priority 1985, dated 1987)
